Article PMC6706801, “Palladium-Catalyzed Hydroxycarbonylation of (Hetero)aryl Halides for DNA-Encoded Chemical Library Synthesis” (Bioconjugate Chemistry, 2019)

Molecular target: T1, soluble epoxide hydrolase (sEH, EPHX2) (Homo sapiens, UniProt P34913)
T1 sequence (P34913 1-555): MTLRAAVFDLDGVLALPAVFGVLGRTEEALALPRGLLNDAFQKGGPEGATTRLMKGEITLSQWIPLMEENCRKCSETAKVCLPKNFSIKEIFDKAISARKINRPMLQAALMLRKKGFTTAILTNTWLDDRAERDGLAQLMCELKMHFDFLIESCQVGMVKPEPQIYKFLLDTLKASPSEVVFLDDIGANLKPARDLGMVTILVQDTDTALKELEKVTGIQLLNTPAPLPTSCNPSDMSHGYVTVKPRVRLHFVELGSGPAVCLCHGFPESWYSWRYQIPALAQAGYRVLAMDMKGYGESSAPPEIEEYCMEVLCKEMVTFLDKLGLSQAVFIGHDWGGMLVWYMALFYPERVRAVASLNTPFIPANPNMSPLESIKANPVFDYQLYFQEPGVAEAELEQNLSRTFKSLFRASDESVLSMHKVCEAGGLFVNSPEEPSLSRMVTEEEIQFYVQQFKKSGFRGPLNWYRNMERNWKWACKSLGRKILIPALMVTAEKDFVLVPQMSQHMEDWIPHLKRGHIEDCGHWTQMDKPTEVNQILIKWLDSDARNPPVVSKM
Test: fluorescent kinetic enzyme assay (off-DNA hit resynthesised after DECL selection)
Format: biochemical

Ki: 9 ± 2 nM
Compound: Cc1cccc(CCNC(=O)c2ccc(F)c(CN(C)Cc3cc(C(=O)NCCc4cccc(C)c4)ccc3F)c2)c1 [compound 5, 5]
